Test results reported in US20160138077A1, “MONITORING AND ASSESSING DEACETYLASE ENZYME ACTIVITY” (THE GENERAL HOSPITAL CORPORATION, priority 2013, published 2016).

Key:
Sirtuin 1 = biological target: T1, Sirtuin 1 (Homo sapiens, UniProt Q96EB6); test: LCMS assay of sirtuin enzymatic action on HP-1; format: biochemical; conditions: Sirtuin 1, −SAHA; 5 μM HP-1, 12 hours at 37° C.
T1 construct: purchased Cayman Chemicals
T1 sequence (Q96EB6 1-747): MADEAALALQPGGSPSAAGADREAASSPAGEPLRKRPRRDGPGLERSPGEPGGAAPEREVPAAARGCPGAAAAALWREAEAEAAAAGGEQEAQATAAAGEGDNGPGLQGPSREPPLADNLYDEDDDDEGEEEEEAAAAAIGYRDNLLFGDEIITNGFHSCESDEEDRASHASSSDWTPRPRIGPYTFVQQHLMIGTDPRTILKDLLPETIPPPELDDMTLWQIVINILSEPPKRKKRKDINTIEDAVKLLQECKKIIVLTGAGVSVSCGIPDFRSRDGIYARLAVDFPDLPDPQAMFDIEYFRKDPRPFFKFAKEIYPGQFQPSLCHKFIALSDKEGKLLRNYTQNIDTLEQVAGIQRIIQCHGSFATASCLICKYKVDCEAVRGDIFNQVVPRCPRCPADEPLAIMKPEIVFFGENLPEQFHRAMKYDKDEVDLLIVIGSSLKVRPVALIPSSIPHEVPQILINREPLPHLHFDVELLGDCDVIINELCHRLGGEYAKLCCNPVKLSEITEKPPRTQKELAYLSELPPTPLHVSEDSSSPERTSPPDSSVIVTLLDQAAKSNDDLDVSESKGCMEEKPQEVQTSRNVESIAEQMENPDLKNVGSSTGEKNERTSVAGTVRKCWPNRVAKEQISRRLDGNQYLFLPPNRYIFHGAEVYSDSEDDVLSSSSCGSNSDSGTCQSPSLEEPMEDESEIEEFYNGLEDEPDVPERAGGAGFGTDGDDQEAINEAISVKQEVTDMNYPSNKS
Description: (§1) The enzymatic cleavage of HP-1 was analyzed by performing LCMS assays with sirtuin 1 and 3 (Cayman Chemicals) and the proteases chymotrypsin (Sigma-Aldrich), cathepsin (EMD Millipore), and pepsin* (Sigma-Aldrich). Solutions containing (i) vehicle with DMSO in HDAC buffer, (ii) 5 μM HP-1 in HDAC buffer, and (iii) 5 μM HP-1 and the enzyme in HDAC buffer were incubated for 12 hours at 37° C. Following incubation, a 20 μL aliquot of supernatant from each sample was analyzed by LCMS. Deacetylation of HP-1 was investigated by screening for the DHP-1 (M+H)^+ ion following positive electrospray ionization. All assay samples were analyzed in triplicate. […]
(§2) HP-1 was not altered by sirtuins 1 and 3 or the proteases chymotrypsin, cathepsin and pepsin, as determined by LCMS. […] For Cathepsin B, the cleavage of the enzyme substrate, z-RR-pNA (Santa Cruz Biotechnology, Dallas, Tex.) was monitored using a Wallac EnVision 2103 Multilabel fluorescence plate reader (PerkinElmer, Waltham, Mass.) with a 405 nm excitation filter, a 406 nm emission filter, and a gain of 150. The cleavage of the pepsin substrate, Ac-Phe-Tyr-OH (Chem-Impex Inc.), was monitored by LCMS at pH 4. […]

Sirtuin 3 = biological target: T2, Sirtuin 3 (Homo sapiens, UniProt Q9NTG7); test: LCMS assay of sirtuin enzymatic action on HP-1; format: biochemical; conditions: Sirtuin 3, −SAHA; 5 μM HP-1, 12 hours at 37° C.
T2 construct: purchased Cayman Chemicals
T2 sequence (Q9NTG7 1-399): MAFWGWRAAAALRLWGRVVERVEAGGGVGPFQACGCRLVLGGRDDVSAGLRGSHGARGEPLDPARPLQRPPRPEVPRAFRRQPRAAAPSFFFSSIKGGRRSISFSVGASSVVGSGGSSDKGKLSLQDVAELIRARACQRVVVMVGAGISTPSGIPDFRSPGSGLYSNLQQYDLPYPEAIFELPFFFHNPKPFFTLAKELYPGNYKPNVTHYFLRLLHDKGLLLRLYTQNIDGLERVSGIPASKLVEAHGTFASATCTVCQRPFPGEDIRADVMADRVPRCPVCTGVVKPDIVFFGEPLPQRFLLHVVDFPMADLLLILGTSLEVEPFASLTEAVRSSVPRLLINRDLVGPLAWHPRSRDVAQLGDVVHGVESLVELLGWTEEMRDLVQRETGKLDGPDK
Description: as §1, §2

CC(=O)NC=CCCCCNC(=O)CCCCCNc1ccc([N+](=O)[O-])c2nonc12 [HP-1]
% HP-1 to DHP-1 (Sirtuin 1): 0%
% HP-1 to DHP-1 (Sirtuin 3): 0%
